Read-outs that look alike come from different tables or passages of the source. Each block holds one compound with its values, some of them ahead of it.
What was measured:
hENPP1 enzyme = hENPP1 enzyme (Homo sapiens (Human), UniProt P22413); assay: ENPP1 enzymatic inhibition in biochemical assay (TMP-pNP hydrolysis, OD405); conditions: ENPP1 enzymatic inhibition activity, TMP-pNP substrate, pH 9.5
Excerpt: ENPP1 was a transmembrane glycoprotein capable of hydrolyzing nucleotides and derivatives with a nucleotide-5′-monophosphate structure. ENPP1 was capable of hydrolyzing artificial thymidine 5′-monophosphate p-nitrophenyl ester (TMP-pNP) into nucleotide 5′-monophosphate and p-nitrophenol which was a chromogenic product. The formation amount of p-nitrophenol product could be directly measured by its absorbance at 405 nm, which was directly proportional to the enzyme activity.
The compound was dissolved in DMSO, with stock concentration of 1 mM, and diluted in a 4-fold serial gradient to make 10 concentration points. Echo was used to transfer 300 nL of gradient concentrations of compound to a 384-well assay plate (final concentration: starting at 10 μM, 4-fold serial gradient dilution, 10 concentration points). First, 15 μL of 0.2 ng/uL hENPP1 enzyme (2× final concentration) prepared in assay buffer (250 mM NaCl, 50 mM Tris, pH=9.5) was added to each well. Then, 15 μL of 400 μM TMP-pNP (2× final concentration) diluted in assay buffer was added. After incubating at 37° C. for 0.5 hrs, the OD405 nm value was read by the microplate reader. The percentage inhibition was calculated using the formula: % Inhibition Rate=(ODhigh signal control−ODsample well)/(ODhigh signal control−ODlow signal control)*100. The IC50 value was calculated using four-parameter fit. The high signal control was the DMSO group without inhibitors, and the low signal control was the blank control group.

[1] = biological target: ENPP1 in cultured MDA-MB-231 cells (Homo sapiens (Human), UniProt P22413); assay: ENPP1 enzymatic inhibition in cellular assay (MDA-MB-231 cells, TMP-pNP); assay type: cell-based; conditions: ENPP1 enzymatic inhibition activity at the cellular level
Description: ENPP1 was mainly expressed on the surface of cell membranes and could hydrolyze 2′3′-cGAMP into 5′-GMP and 5′-AMP. Similarly, ENPP1 could also hydrolyze the synthetic phosphate TMP-pNP, generating nucleotide-5′-monophosphate and the chromogenic product p-nitrophenol. Therefore, TMP-pNP was used as a substrate to reflect the enzyme activity of ENPP1 in cultured MDA-MB-231 cells. The amount of p-nitrophenol formed in the culture medium was determined by absorbance at 405 nim, which was directly proportional to the activity of ENPP1.
MDA-MB-231 cells was seeded with a density of 6000 per well in 384-well plate and cultured overnight (about 18 hrs) at 37° C. The compound was diluted into a 50× serial gradient dilution using an assay buffer (250 mM NaCl, 50 mM Tris, pH=9.5), starting at 500 μM, and diluted in a 4-fold serial gradient to make 10 concentration points. The cell culture medium was removed, and 10 μL of gradient concentrations of compounds were added to each well of the 384-well assay plate (final concentration: starting at 10 μM, 4-fold serial gradient dilution, with 10 concentration points). Then, 10 μL of 1 mM TMP-pNP (2× final concentration) dissolved in the assay buffer was added to the well. After incubating at 37° C. for 3 hrs, the OD405 nm value was read by the microplate reader. The percentage inhibition was calculated using the formula: % Inhibition Rate=(ODhigh signal control−ODsample well)/(ODhigh signal control−ODlow signal control)*100. The IC50 value was calculated using four-parameter fit. The high signal control was the DMSO group without inhibitors, and the low signal control was the blank control group.

[2] = Pharmacokinetics in mice, compound concentration by LC-MS/MS; assay type: in vivo, CD-1 male mice; conditions: for AUC(0-t): read-out: AUC0-24 h; for Vd: read-out: VSS
[3] = male, CD-1, mouse, plasma, 10 mg/kg, PO, 10 mpk vs IV, 2 mpk
[4] = male, CD-1, mouse, plasma, 2 mg/kg, IV, 2 mpk
[5] = male, CD-1, mouse, plasma, 10 mg/kg, PO, 10 mpk
[6] = male, CD-1, mouse, plasma, 10 mg/kg, PO, 10 mpk, read-out: Cmax
[7] = male, CD-1, mouse, plasma, 10 mg/kg, PO, 10 mpk, read-out: Tmax

Chain of hENPP1 enzyme (P22413 whole entry): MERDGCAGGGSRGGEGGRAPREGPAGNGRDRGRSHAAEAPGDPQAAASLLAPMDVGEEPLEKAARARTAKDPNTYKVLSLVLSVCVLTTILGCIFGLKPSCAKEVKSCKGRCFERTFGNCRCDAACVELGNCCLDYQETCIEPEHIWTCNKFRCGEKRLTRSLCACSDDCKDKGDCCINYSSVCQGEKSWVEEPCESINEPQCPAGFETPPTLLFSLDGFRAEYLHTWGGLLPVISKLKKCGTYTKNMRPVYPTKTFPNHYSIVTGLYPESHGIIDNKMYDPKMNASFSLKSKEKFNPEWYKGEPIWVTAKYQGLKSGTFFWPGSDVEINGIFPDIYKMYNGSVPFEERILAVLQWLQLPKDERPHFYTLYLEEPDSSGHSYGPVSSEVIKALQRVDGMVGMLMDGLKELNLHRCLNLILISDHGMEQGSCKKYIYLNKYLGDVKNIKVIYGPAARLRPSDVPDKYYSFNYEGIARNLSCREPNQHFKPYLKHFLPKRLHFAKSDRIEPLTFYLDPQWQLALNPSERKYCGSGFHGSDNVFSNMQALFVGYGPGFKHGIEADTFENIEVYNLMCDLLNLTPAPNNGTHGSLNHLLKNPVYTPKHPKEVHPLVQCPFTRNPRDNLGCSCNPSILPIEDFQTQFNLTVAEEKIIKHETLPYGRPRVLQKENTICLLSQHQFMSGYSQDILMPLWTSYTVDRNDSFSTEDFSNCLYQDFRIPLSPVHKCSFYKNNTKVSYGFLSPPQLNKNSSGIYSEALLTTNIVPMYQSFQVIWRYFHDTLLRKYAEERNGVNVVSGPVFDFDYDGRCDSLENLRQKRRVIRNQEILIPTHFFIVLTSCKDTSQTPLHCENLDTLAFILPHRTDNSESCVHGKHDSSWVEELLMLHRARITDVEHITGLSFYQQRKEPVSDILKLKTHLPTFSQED
Chain of ENPP1 in cultured MDA-MB-231 cells (P22413 whole entry): as above

- IC50 (hENPP1 enzyme): 0.1 to 0.2 nM
- EC50 [1]: < 0.5 nM
- bioavailability [2, 3]: 92.6%
Structure (SMILES): COc1ccc2c3c(cnc2n1)COC(=O)N3Cc1c(F)cc(S(N)(=O)=O)cc1F [Compound 006, 3,5-difluoro-4-((8-methoxy-2-oxo-2H-[1,3]oxazino[5,4-c][1,8]naphthyridin-1(4H)-yl)methyl)benzenesulfonamide]

- IC50 (hENPP1 enzyme): 0.1 to 0.2 nM
Structure (SMILES): COc1ccc2c3c(cnc2c1)COC(=O)N3Cc1c(F)cc(S(N)(=O)=O)cc1F [Compound 030, 3,5-difluoro-4-((8-methoxy-2-oxo-2H-[1,3]oxazino[5,4-c]quinolin-1(4H)-yl)methyl)benzenesulfonamide]

- IC50 (hENPP1 enzyme): 0.2 to 2 nM
Structure (SMILES): COc1ccc2c3c(cnc2n1)NCC(=O)N3Cc1c(F)cc(S(N)(=O)=O)cc1F [Compound 049, 3,5-difluoro-4-((8-methoxy-2-oxo-3,4-dihydropyrazino[2,3-c][1,8]naphthyridine-1(2H)-yl)methyl)benzenesulfonamide]

- IC50 (hENPP1 enzyme): 0.2 to 2 nM
Structure (SMILES): COc1ccc2c3c(cnc2n1)NCC(=O)N3Cc1c(F)cc(S(N)(=O)=O)cc1F [Compound 051]

- IC50 (hENPP1 enzyme): < 0.1 nM
- clearance [2, 4]: 4.1 mL/min/kg
- half-life [2, 4]: 211 min
- AUC(0-t) [2, 4]: 8090 ng·h/mL
- Vd [2, 4]: 0.826 L/kg
- half-life [2, 5]: 203 min
- bioavailability [2, 3]: 49.7%
- AUC(0-t) [2, 5]: 20100 ng·h/mL
- Cmax [2, 6]: 7900 ng/mL
- Tmax [2, 7]: 30 min
Structure (SMILES): COc1ccc2c3c(cnc2n1)CCC(=O)N3Cc1c(F)cc(S(N)(=O)=O)cc1F [Compound 054, 3,5-difluoro-4-((8-methoxy-2-oxo-3,4-dihydropyrido[2,3-h][1,6]naphthyridine-1(2H)-yl)methyl)benzenesulfonamide]

- IC50 (hENPP1 enzyme): 0.2 to 2 nM
Structure (SMILES): COc1ccc2c3c(cnc2n1)COC(=O)N3Cc1ccc(S(N)(=O)=O)cc1 [Compound 067, 4-((8-methoxy-2-oxo-2H-[1,3]oxazino[5,4-c][1,8]naphthyridin-1(4H)-yl)methyl)benzenesulfonamide]

- IC50 (hENPP1 enzyme): 0.1 to 0.2 nM
Structure (SMILES): COc1ccc2c3c(cnc2n1)COC(=O)N3Cc1ccc(S(N)(=O)=O)cn1 [Compound 070, 6-((8-methoxy-2-oxo-2H-[1,3]oxazino[5,4-c][1,8]naphthyridin-1(4H)-yl)methyl)pyridine-3-sulfonamide]

- IC50 (hENPP1 enzyme): 0.1 to 0.2 nM
Structure (SMILES): COc1ccc2c3c(cnc2n1)COC(=O)N3Cc1ccc(S(N)(=O)=O)cc1F [Compound 071, 3-fluoro-4-((8-methoxy-2-oxo-2H-[1,3]oxazino[5,4-c][1,8]naphthyridin-1(4H)-yl)methyl)benzenesulfonamide]

The next lines start with the compound.

Structure (SMILES): COc1ccc2c(ncc3ncc(=O)n(Cc4c(F)cc(S(N)(=O)=O)cc4F)c32)n1 [Compound 002, 3,5-difluoro-4-((8-methoxy-2-oxopyrazino[2,3-c][1,8]naphthyridin-1(2H)-yl)methyl)benzenesulfonamide]
- IC50 (hENPP1 enzyme): 0.2 to 2 nM

Structure (SMILES): COc1cc2ncc3c(c2cc1F)N(Cc1c(F)cc(S(N)(=O)=O)cc1F)C(=O)NC3 [Compound 007, 3,5-difluoro-4-((9-fluoro-8-methoxy-2-oxo-3,4-dihydropyrimido[5,4-c]quinolin-1(2H)-yl)methyl)benzenesulfonamide]
- IC50 (hENPP1 enzyme): 0.1 to 0.2 nM
- EC50 [1]: < 0.5 nM

Structure (SMILES): COc1ccc2c(ncc3ccc(=O)n(Cc4c(F)cc(S(N)(=O)=O)cc4F)c32)n1 [Compound 008, 3,5-difluoro-4-((8-methoxy-2-oxopyrido[2,3-h][1,6]naphthyridine-1(2H)-yl)methyl)benzenesulfonamide]
- IC50 (hENPP1 enzyme): 0.1 to 0.2 nM
- EC50 [1]: < 0.5 nM
- clearance [2, 4]: 4.78 mL/min/kg
- half-life [2, 4]: 274 min
- AUC(0-t) [2, 4]: 7450 ng·h/mL
- Vd [2, 4]: 1.52 L/kg
- half-life [2, 5]: 232 min
- bioavailability [2, 3]: 20%
- AUC(0-t) [2, 5]: 7340 ng·h/mL
- Cmax [2, 6]: 798 ng/mL
- Tmax [2, 7]: 190 min

Structure (SMILES): COc1ccc2c(ncc3c(=O)[nH]c(=O)n(Cc4c(F)cc(S(N)(=O)=O)cc4F)c32)n1 [Compound 017]
- IC50 (hENPP1 enzyme): 0.2 to 2 nM

Structure (SMILES): COc1cc2ncc3c(c2cc1OC)N(Cc1c(F)cc(S(N)(=O)=O)cc1F)C(=O)OC3 [Compound 031, 4-((8,9-dimethoxy-2-oxo-2H-[1,3]oxazino[5,4-c]quinolin-1(4H)-yl)methyl)-3,5-difluorobenzenesulfonamide]
- IC50 (hENPP1 enzyme): 0.2 to 2 nM

Structure (SMILES): COc1cc2ncc3c(c2cc1F)N(Cc1c(F)cc(S(N)(=O)=O)cc1F)C(=O)OC3 [Compound 048, 3,5-difluoro-4-((9-fluoro-8-methoxy-2-oxo-2H-[1,3]oxazino[5,4-c]quinolin-1(4H)-yl)methyl)benzenesulfonamide]
- IC50 (hENPP1 enzyme): < 0.1 nM
- EC50 [1]: < 0.5 nM
- clearance [2, 4]: 1.92 mL/min/kg
- half-life [2, 4]: 184 min
- AUC(0-t) [2, 4]: 18300 ng·h/mL
- Vd [2, 4]: 0.46 L/kg
- half-life [2, 5]: 167 min
- bioavailability [2, 3]: 38.1%
- AUC(0-t) [2, 5]: 34800 ng·h/mL
- Cmax [2, 6]: 4870 ng/mL
- Tmax [2, 7]: 35 min

Structure (SMILES): COc1ccc2c3c(cnc2n1)N(C(=O)OC(C)(C)C)CCN3Cc1c(F)cc(S(N)(=O)=O)cc1F [Compound 050, tert-butyl 1-(2,6-difluoro-4-sulfamoylbenzyl)-8-methoxy-2,3-dihydropyrazino[2,3-c][1,8]naphthyridine-4(1H)-carboxylate]
- IC50 (hENPP1 enzyme): 0.2 to 2 nM

Structure (SMILES): COc1nc2ncc3c(c2cc1F)N(Cc1c(F)cc(S(N)(=O)=O)cc1F)C(=O)CN3 [Compound 055]
- IC50 (hENPP1 enzyme): 0.1 to 0.2 nM

Structure (SMILES): COc1ccc2c3c(cnc2n1)CN(CC(F)(F)F)C(=O)N3Cc1c(F)cc(S(N)(=O)=O)cc1F [Compound 056]
- IC50 (hENPP1 enzyme): 0.1 to 0.2 nM

Structure (SMILES): COc1ccc2c(ncc3[nH]c(=O)c(=O)n(Cc4c(F)cc(S(N)(=O)=O)cc4F)c32)n1 [Compound 062, 3,5-difluoro-4-((8-methoxy-2,3-dioxo-3,4-dihydropyrazino[2,3-c][1,8]naphthyridine-1(2H)-yl)methyl)benzenesulfonamide]
- IC50 (hENPP1 enzyme): < 0.1 nM
- EC50 [1]: < 0.5 nM

Structure (SMILES): CCOc1ccc2c(ncc3ncc(=O)n(Cc4c(F)cc(S(N)(=O)=O)cc4F)c32)n1 [Compound 063]
- IC50 (hENPP1 enzyme): 0.2 to 2 nM

Structure (SMILES): COc1ccc2c3c(cnc2n1)NCCN3Cc1c(F)cc(S(N)(=O)=O)cc1F [Compound 066, 3,5-difluoro-4-((8-methoxy-3,4-dihydropyrazino[2,3-c][1,8]naphthyridine-1(2H)-yl)methyl)benzenesulfonamide]
- IC50 (hENPP1 enzyme): 0.2 to 2 nM

Structure (SMILES): COc1ccc2c3c(cnc2c1)N(C(=O)CO)CC(=O)N3Cc1c(F)cc(S(N)(=O)=O)cc1F [Compound 072]
- IC50 (hENPP1 enzyme): 0.2 to 2 nM

Structure (SMILES): COc1ccc2c3c(cnc2n1)CN(C1CC1)C(=O)N3Cc1c(F)cc(S(N)(=O)=O)cc1F [Compound 074]
- IC50 (hENPP1 enzyme): 0.1 to 0.2 nM

Structure (SMILES): COc1cnc2c(c1)ncc1[nH]c(=O)c(=O)n(Cc3c(F)cc(S(N)(=O)=O)cc3F)c12 [Compound 076]
- IC50 (hENPP1 enzyme): 0.1 to 0.2 nM

Structure (SMILES): COc1ccc2c(ncc3c2n(Cc2c(F)cc(S(N)(=O)=O)cc2F)c(=O)n3CC(F)(F)F)n1 [ZX-131, reference compound]
- IC50 (hENPP1 enzyme): 0.1 to 0.2 nM
- EC50 [1]: 0.5 to 2 nM
- AUC0-24 h ([2]; IV, 2 mpk): 4419 ng·h/mL
- CL ([2]; IV, 2 mpk): 0.432 L/h/kg
- T1/2 ([2]; IV, 2 mpk): 6.01 h
- VSS ([2]; IV, 2 mpk): 3.212 L/kg
- AUC0-24 h ([2]; PO, 10 mpk): 3274 ng·h/mL
- Cmax ([2]; PO, 10 mpk): 247 ng/mL
- T1/2 ([2]; PO, 10 mpk): 7.78 h
- Tmax ([2]; PO, 10 mpk): 360 min
- F % ([2]; PO, 10 mpk vs IV, 2 mpk): 15%

— US20250115609A1, “AROMATIC HETEROCYCLIC COMPOUNDS, PREPARATION METHOD THEREFOR AND USES THEREOF” (Innovstone Therapeutics Limited, priority 2021, published 2025)
